Values of other authors, collected in publication PMC4585962, “A peptide factor secreted by Staphylococcus pseudintermedius exhibits properties of both bacteriocins and virulence factors” (Scientific Reports, 2015).

What was measured:
[1] = system: mammalian cells; settings: cited from earlier work
Excerpt: In addition to the evident bactericidal activity of BacSp222, the most intriguing findings are its cytotoxic and modulatory effects on mammalian cells. Generally, peptide bacteriocins are considered to be noncytotoxic. However, the first known bacterial toxin active against eukaryotic and prokaryotic cells was a cytolysin produced by Enterococcus faecalis.

[2] = system: Galleria mellonella larvae; settings: degradation or inactivation by host agents; cited from earlier work
Description: (§1) BacSp222 remains active upon even prolonged incubation at elevated temperature and is exceptionally resistant to proteases in vitro. The former feature is quite common for bacteriocins, which, in combination with the virtual lack of cytotoxicity, contributes to common and successful application of bacteriocins in the food industry as preservatives, either in the form of additives or as coating agents for packaging materials. […] Resistan ...

[3] = system: proteases; settings: cited from earlier work
Description: as §1

| Substance | concentrations with adverse effects on mammalian cells [1] | other results |
| --- | --- | --- |
| bovicin HC5 | tens to hundreds |  |
| epidermicin NI01 |  | time to loss of bacteriocin activity after administration [2]: lost within less than an hour |
| nisin: low molecular weight bacteriocin produced by lactic acid bacteria (ITSISLCTPGCKTGALMGCNMKTATCHCSIHVSK; not fully specified; Lantibiotic nisin-A; UniProt P13068 24-57, looked up) | tens to hundreds |  |
| aureocin A53 |  | resistance to proteases [3]: Resistance to proteases |
